The record followed here is US4334066A (priority 1981, dated 1982).

Holding throughout (type): cell-based
In test [1] the test system is Rice blast disease (Pyricularia oxyzae). Nature of the test: microbe, parasite or virus in culture. Particulars: 48 h, read-out: Minimum Inhibitory Concentration.
Test [2] has as its system Stem rot of eggplant (Sclerotinia Sclerotiorum). Particulars: 48 h, test microorganism C, PDA medium, complete inhibition of mycelial growth, read 2 days later, read-out: Minimum Inhibitory Concentration. From the text:
(§1) The test microorganisms employed are described below.
C . . . Stem rot of eggplant
(Sclerotinia Sclerotiorum)

For test [3], the system named is Gammy stem blight of melon (Mycosphaerella melonis). Particulars: 48 h, test microorganism D, PDA medium, complete inhibition of mycelial growth, read 2 days later, read-out: Minimum Inhibitory Concentration.
Excerpt: as §1
D . . . Gammy stem blight of melon

The subject of test [4] is Early blight of tomato (Alternaria solaui). The following applies: 48 h, test microorganism E, PDA medium, complete inhibition of mycelial growth, read 2 days later, read-out: Minimum Inhibitory Concentration.
Excerpt: as §1
E . . . Early blight of tomato

The test system of test [5] is Bacterial blight of rice (Xanthomonas oryzae). The test is described as follows: microbe, parasite or virus in culture. Particulars: 48 h, read-out: Minimum Inhibitory Concentration.

In brackets after ≈: the same amount, converted by molar mass.

In the case of `CCC1OC(OC)C=C(CN2CCNCC2)C1=O` (stereo not drawn) [Compound 1, 6-ethyl-2-methoxy-4-piperazinomethyl-5-oxo-5,6-dihydro-2H-pyran], the MIC in test [1] stood at 100 µg/mL (≈ 393 µM); in test [2] it was 100 µg/mL (≈ 393 µM); in test [3] it was 100 µg/mL (≈ 393 µM); in test [4], 200 µg/mL (≈ 786 µM); in test [5] it was 12.5 µg/mL (≈ 49.1 µM).
On to `CCOC1C=C(CN2CCOCC2)C(=O)C(C(C)C)O1` (stereo not drawn) [Compound 2, 6-isopropyl-2-ethoxy-4-morpholinomethyl-5-oxo-5,6-dihydro-2H-pyran], for which the MIC stood at 100 µg/mL (≈ 353 µM) in test [1], 100 µg/mL (≈ 353 µM) in test [2], 100 µg/mL (≈ 353 µM) in test [3] and 200 µg/mL (≈ 706 µM) in test [4].
